The values that follow come from PMC8818024 (Structure (London, England : 1993), 2021).

Structures are written as SMILES. “Also recorded” adds a separate entry of the source.

The target of one test is Arr1 (Bos taurus, UniProt P08168). Put plainly: Tyrosine fluorescence quenching assay of Arr1. The format is binding, bovine. As to conditions: intrinsic quenching assay, no Mg2+; Figure 6E-F, Table S1.
The next test relates to bovine arrestin-1. Put plainly: cwEPR of spin-labeled arrestin C-tail mutants. As to conditions: spin-labeled Arr1 mutants, room temperature, compared with apo-Arr1; Figure 3D.

Chain of Arr1 (P08168 whole entry): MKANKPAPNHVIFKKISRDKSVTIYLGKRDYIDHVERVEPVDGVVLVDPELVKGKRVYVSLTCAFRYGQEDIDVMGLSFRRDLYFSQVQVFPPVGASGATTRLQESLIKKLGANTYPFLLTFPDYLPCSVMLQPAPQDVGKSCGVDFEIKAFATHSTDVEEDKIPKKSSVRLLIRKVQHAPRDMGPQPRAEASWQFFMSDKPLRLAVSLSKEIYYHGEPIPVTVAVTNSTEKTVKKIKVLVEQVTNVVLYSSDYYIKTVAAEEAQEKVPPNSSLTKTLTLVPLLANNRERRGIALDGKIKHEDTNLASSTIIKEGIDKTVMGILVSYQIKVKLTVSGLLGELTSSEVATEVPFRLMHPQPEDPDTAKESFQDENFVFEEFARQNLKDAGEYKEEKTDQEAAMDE

For `O=P(O)(O)O[C@@H]1[C@H](O)[C@H](O)[C@@H](OP(=O)(O)O)[C@H](OP(=O)(O)O)[C@H]1O` [InsP3, (1,4,5) myo-D-inositol triphosphate], at Arr1, the “relative affinity for Arr1 (in words)” value is “somewhat lower affinity; also recorded: lower relative affinity”. The “C-tail flexibility by cwEPR (sites T396 and A401)” value in the test on bovine arrestin-1 is recorded as “slightly more flexibility than InsP6”.
